Experimental findings from patent US10253236B2, “Environmental friendly well treatment fluids comprising an ester” (AMRIL AG, priority 2013, dated 2019) are described below.

Data set [1] in a line: Rheological characteristics of the oil based mud (Fann SR 12/Model 35 rheometer). The class given is physicochemical. The conditions noted are these: 2.5 g additive in oil based mud, measuring temp. 50° C. On the procedure:
(§1) An oil based well treatment fluid was prepared as follows: the indicated amounts of the following ingredients are mixed using a Silverson Mixer (model L4RT) in the following order: synthetic paraffin, filtration control agent (a polymer: preferably Adapta by Halliburton), Ca(OH)2, Amidoamin (Terradril EM 1122), Water, CaCl2*2H2O, BaSO4, ball clay.
(§2) Next, either an ester of the invention (for example azelaic ricinoleate or an ester based on a C21 dimer acid and ricinoleic acid) or a conventional viscosifier (C36 dimer acid) is added to the mixture and to obtain the final emulsion a standard Hamilton Beach mixer was used, following manufacturer's instructions.
(§3) Next, the rheological characteristics including the fluids-plastic viscosity (PV), yield point (YP) and gel strength (gels 10″/10′) after 10 seconds and 10 minutes were determined with a Fann SR 12/Model 35 rheometer (Fann). In addition to the rheological characteristics, the electrical stability was tested using a Model 23D Electrical Stability Tester, following manufacturer's instructions, in accordance with API recommended practice 13B-2, December 1991.
(§4) The well treatment fluid was also tested in a Roller Oven for the indicated times at the indicated temperatures (after hot rolling=AHR and before hot rolling=BHR as indicated in the Table). As roller oven, a Baroid Laboratory Roller Oven was used, following manufacturer's instructions.

The next data set relates to seawater bacteria. Briefly: Inhibition to seawater bacteria (Marine BODIS test). As to conditions: natural seawater.
The nature of data set [2]: Electrical stability of the oil based mud (Model 23D Electrical Stability Tester, API 13B-2). The class given is physicochemical. The conditions noted are these: 2.5 g additive in oil based mud, measuring temp. 50° C. On the procedure: as §1, §2, §3, §4
[3] abbreviates: AHR 16 h (System 4: 15 h) at 150 °F.
Setting [4] is: AHR (after hot rolling) 16 h (System 4: 15 h) at 150 °F.

Experimental for seawater bacteria: This method uses natural seawater (salinity 34%-37%) with added mineral nutrients (8.5 g/l KH2PO4, 21.7 g/l K2HPO4, 29.92 g/l Na2HPO4.2H2O, 0.5 g/l NH4Cl, 31.84 CaCl2, 22.5 g/l MgSO4.7H2O, 0.25 g/l FeCl3.6H2O, 0.4 g/l EDTA) and no inoculum was added in addition to the microorganisms already present in the seawater. The test vessels were closed glass bottles with a known volume of aqueous test mixture (66.6%) and air (33.3%). They were shaken continuously to assure steady state oxygen partitioning between the aqueous and gaseous phase. The degradation was followed by weekly measurements of the biochemical oxygen demand (BOD) in the aqueous phase for a 28-day period. The test vessels were re-aerated and resealed after measurement. The total oxygen uptake in the test flasks was calculated from the measured oxygen concentration divided by the saturation value at normal conditions and multiplied with the total oxygen content originally present in the aqueous and gaseous phases.
Three replicates were used for each test condition: test substance, controls, and insoluble reference substance. The total oxygen capacity of each test vessel was 26.64 mg oxygen. […]

As to `CCCCCCC(CC=CCCCCCCCC(=O)O)OC(=O)CCCCCCCC(=O)O` (stereo not shown) [Azelaic ricinoleate, azelaic ricinoleate], in data set [1] (setting [3]), the 3 rpm came out at 24 skt, the 6 rpm is given as 24 skt, the 100 rpm is recorded as 30 skt and the 200 rpm worked out at 37 skt. Further, in data set [1] (setting [3]), the 300 rpm was 44 skt, the 600 rpm is reported as 59 skt, the “Gels 10′ (gel strength after 10 minutes)” value turned out to be 25 lb/100 ft^2 and the “Gels 10″ (gel strength after 10 seconds)” value came out at 22 lb/100 ft^2. Further, in data set [1] (setting [3]), the “PV (plastic viscosity)” value was found to be 15 cP and the “YP (yield point)” value came to 29 lb/100 ft^2. In data set [1] (BHR), the 3 rpm stood at 25 skt, the 6 rpm is given as 25 skt, the 100 rpm is reported as 31 skt and the 200 rpm is on record as 38 skt. For the same compound, in data set [1] (BHR), the 300 rpm is given as 44 skt, the 600 rpm is 59 skt, the “Gels 10′ (gel strength after 10 minutes)” value came out at 25 lb/100 ft^2 and the “Gels 10″ (gel strength after 10 seconds)” value is given as 20 lb/100 ft^2. In addition, in data set [1] (BHR), the “PV (plastic viscosity)” value is recorded as 15 cP and the “YP (yield point)” value came to 29 lb/100 ft^2. Moreover, in the data set with seawater bacteria, the “inhibition to seawater bacteria” value is recorded as −14%. Besides, the Electrical stab. in data set [2] (setting [4]) was determined as 802 V. The Electrical stab. in data set [2] (BHR (before hot rolling)) turned out to be 760 V.

Take C36 dimer acid: in data set [1] (setting [3]), the 3 rpm was 10 skt, the 6 rpm is on record as 12 skt, the 100 rpm is 23 skt and the 200 rpm stood at 29 skt. For the same compound, in data set [1] (setting [3]), the 300 rpm is 35 skt, the 600 rpm is on record as 49 skt, the “Gels 10′ (gel strength after 10 minutes)” value is 15 lb/100 ft^2 and the “Gels 10″ (gel strength after 10 seconds)” value came out at 11 lb/100 ft^2. Moreover, in data set [1] (setting [3]), the “PV (plastic viscosity)” value turned out to be 14 cP and the “YP (yield point)” value was 21 lb/100 ft^2. In data set [1] (BHR), this compound showed a 3 rpm of 15 skt, a 6 rpm of 15 skt, a 100 rpm of 25 skt and a 200 rpm of 32 skt. Also, in data set [1] (BHR), the 300 rpm worked out at 39 skt, the 600 rpm turned out to be 52 skt, the “Gels 10′ (gel strength after 10 minutes)” value was found to be 19 lb/100 ft^2 and the “Gels 10″ (gel strength after 10 seconds)” value is 16 lb/100 ft^2. Also, in data set [1] (BHR), the “PV (plastic viscosity)” value came out at 13 cP and the “YP (yield point)” value stood at 26 lb/100 ft^2. Moreover, in the data set on seawater bacteria, the “inhibition to seawater bacteria” value is reported as −1%. The Electrical stab. in data set [2] (setting [4]) was 830 V. This compound also came in with an Electrical stab. in data set [2] (BHR (before hot rolling)) of 795 V.
